Test system: patients with acute lymphoblastic leukemia
Test: Adverse events (CTCAE version 4.0), Phase II study NCI-9775 of sapanisertib monotherapy
Format: in vivo
Description: Responders could continue on the same dose or proceed to allogeneic hematopoietic cell transplant if available. Non‐responders (but tolerating drug) could increase their dose to 4 mg orally for 21 days every 28 days (dose level + 1) starting in Cycle 3 and 4 mg orally continuously (dose level + 2) starting in Cycle 5 (if they tolerated dose level + 1). Dose reduction was recommended for toxicity (dose level − 1: 2 mg daily for 21 days every 28 days; dose level − 2: 2 mg daily for 5 days/week for 3 weeks every 4 weeks). […] Intrathecal chemotherapy was allowed per institutional standard policies. In‐home blood glucose monitoring was performed daily to monitor blood sugar (a glucometer was given to every patient on the study). Discontinuation of therapy was recommended for disease progression, severe toxicity, lack of response, proceeding to hematopoietic cell transplant, or prolonged delay of the subsequent cycle (>1 month delay for therapy‐related toxicity or >2 months delay for unrelated toxicity).
The primary endpoint was the proportion of successes, which was estimated by the number of successes divided by the total number of evaluable patients. Secondary endpoints of duration of response (CR or CRi) and overall survival (OS) were evaluated using Kaplan–Meier techniques; the frequency of proceeding to allogeneic stem cell transplant after achieving response and adverse events (AEs), as evaluated using reported the NCI Common Terminology Criteria for Adverse Events (CTCAE) version 4.0, were presented using descriptive statistics.

[1] = Grade 3–4, at least possibly related
[2] = Grade >2 hematological, abstract
[3] = grade 3–4 non‐hematologic, abstract
[4] = possibly related, B-Cell, 10 evaluable
[5] = possibly related, T-Cell, 5 evaluable
[6] = treatment-related, 15 evaluable

SMILES: CC(C)n1nc(-c2ccc3oc(N)nc3c2)c2c(N)ncnc21 [sapanisertib]
- patients with a grade 3 or higher AE related to the study drug (15 evaluated): 9 patients
- patients with at least 1 grade 3 AE (15 evaluated): 15 patients
- anemia, patients [1]: 4
- leukocytosis, patients [1]: 1
- leukopenia, patients [1]: 2
- lymphopenia, patients [1]: 2
- neutropenia, patients [1]: 1
- thrombocytopenia, patients [1]: 4
- abdominal pain, patients (Grade 3–4 treatment‐related): 1
- anorexia, patients (Grade 3–4 treatment‐related): 1
- bilirubin increase, patients (Grade 3–4 treatment‐related): 1
- confusion, patients (Grade 3–4 treatment‐related): 1
- delirium, patients (Grade 3–4 treatment‐related): 1
- febrile neutropenia, patients (Grade 3–4 treatment‐related): 1
- fibrinogen decrease, patients (Grade 3–4 treatment‐related): 1
- hyperglycemia, patients (Grade 3–4 treatment‐related): 2
- mucositis, patients (Grade 3–4 treatment‐related): 3
- pneumonitis, patients (Grade 3–4 treatment‐related): 1
- thoracic disease, patients (Grade 3–4 treatment‐related): 1
- leukopenia, patients [2]: 3
- lymphopenia, patients [2]: 2
- neutropenia, patients [2]: 1
- thrombocytopenia, patients [2]: 1
- patients with at least one grade ≥3 non‐hematologic AE (Six of 11 patients in clearance-toxicity analysis): 54.5%
- Hyperglycemia, percent of patients (any grade, discussion): 25%
- hyperglycemia, patients (any grade, discussion): 4
- Hyperglycemia G2 (discussion): 2 patients
- Hyperglycemia G3 (discussion): 2 patients
- median time to hyperglycemia (discussion): 6 days
- mucositis (discussion): 3 patients
- anorexia [3]: 1 patient
- confusion [3]: 1 patient
- hepatic failure [3]: 1 patient
- hyperglycemia [3]: 2 patients
- mucositis [3]: 3 patients
- pneumonitis [3]: 1 patient
- seizures [3]: 1 patient
- Abdominal pain grade 3 [4]: 0 (0%) N (%)
- Abdominal pain grade 4 [4]: 0 (0%) N (%)
- Abdominal pain grade 5 [4]: 0 (0%) N (%)
- Anemia grade 3 [4]: 1 (10%) N (%)
- Anemia grade 4 [4]: 0 (0%) N (%)
- Anemia grade 5 [4]: 0 (0%) N (%)
- Anorexia grade 3 [4]: 1 (10%) N (%)
- Anorexia grade 4 [4]: 0 (0%) N (%)
- Anorexia grade 5 [4]: 0 (0%) N (%)
- Confusion grade 3 [4]: 1 (10%) N (%)
- Confusion grade 4 [4]: 0 (0%) N (%)
- Confusion grade 5 [4]: 0 (0%) N (%)
- Fatigue grade 3 [4]: 1 (10%) N (%)
- Fatigue grade 4 [4]: 0 (0%) N (%)
- Fatigue grade 5 [4]: 0 (0%) N (%)
- Febrile neutropenia grade 3 [4]: 1 (10%) N (%)
- Febrile neutropenia grade 4 [4]: 0 (0%) N (%)
- Febrile neutropenia grade 5 [4]: 0 (0%) N (%)
- Hyperglycemia grade 3 [4]: 2 (20%) N (%)
- Hyperglycemia grade 4 [4]: 0 (0%) N (%)
- Hyperglycemia grade 5 [4]: 0 (0%) N (%)
- Leukocytosis grade 3 [4]: 0 (0%) N (%)
- Leukocytosis grade 4 [4]: 0 (0%) N (%)
- Leukocytosis grade 5 [4]: 0 (0%) N (%)
- Lymphocyte count decreased grade 3 [4]: 2 (20%) N (%)
- Lymphocyte count decreased grade 4 [4]: 0 (0%) N (%)
- Lymphocyte count decreased grade 5 [4]: 0 (0%) N (%)
- Mucositis oral grade 3 [4]: 3 (30%) N (%)
- Mucositis oral grade 4 [4]: 0 (0%) N (%)
- Mucositis oral grade 5 [4]: 0 (0%) N (%)
- Neoplasms benign, mal, uncpec - Oth spec grade 3 [4]: 0 (0%) N (%)
- Neoplasms benign, mal, uncpec - Oth spec grade 4 [4]: 0 (0%) N (%)
- Neoplasms benign, mal, uncpec - Oth spec grade 5 [4]: 0 (0%) N (%)
- Neutrophil count decreased grade 3 [4]: 0 (0%) N (%)
- Neutrophil count decreased grade 4 [4]: 1 (10%) N (%)
- Neutrophil count decreased grade 5 [4]: 0 (0%) N (%)
- Platelet count decreased grade 3 [4]: 0 (0%) N (%)
- Platelet count decreased grade 4 [4]: 1 (10%) N (%)
- Platelet count decreased grade 5 [4]: 0 (0%) N (%)
- Pneumonitis grade 3 [4]: 0 (0%) N (%)
- Pneumonitis grade 4 [4]: 0 (0%) N (%)
- Pneumonitis grade 5 [4]: 0 (0%) N (%)
- Resp, thoracic, mediastinal - Oth spec grade 3 [4]: 0 (0%) N (%)
- Resp, thoracic, mediastinal - Oth spec grade 4 [4]: 1 (10%) N (%)
- Resp, thoracic, mediastinal - Oth spec grade 5 [4]: 0 (0%) N (%)
- White blood cell decreased grade 3 [4]: 0 (0%) N (%)
- White blood cell decreased grade 4 [4]: 2 (20%) N (%)
- White blood cell decreased grade 5 [4]: 0 (0%) N (%)
- Abdominal pain grade 3 [5]: 1 (20%) N (%)
- Abdominal pain grade 4 [5]: 0 (0%) N (%)
- Abdominal pain grade 5 [5]: 0 (0%) N (%)
- Anemia grade 3 [5]: 0 (0%) N (%)
- Anemia grade 4 [5]: 0 (0%) N (%)
- Anemia grade 5 [5]: 0 (0%) N (%)
- Anorexia grade 3 [5]: 0 (0%) N (%)
- Anorexia grade 4 [5]: 0 (0%) N (%)
- Anorexia grade 5 [5]: 0 (0%) N (%)
- Confusion grade 3 [5]: 0 (0%) N (%)
- Confusion grade 4 [5]: 0 (0%) N (%)
- Confusion grade 5 [5]: 0 (0%) N (%)
- Fatigue grade 3 [5]: 0 (0%) N (%)
- Fatigue grade 4 [5]: 0 (0%) N (%)
- Fatigue grade 5 [5]: 0 (0%) N (%)
- Febrile neutropenia grade 3 [5]: 0 (0%) N (%)
- Febrile neutropenia grade 4 [5]: 0 (0%) N (%)
- Febrile neutropenia grade 5 [5]: 0 (0%) N (%)
- Hyperglycemia grade 3 [5]: 0 (0%) N (%)
- Hyperglycemia grade 4 [5]: 0 (0%) N (%)
- Hyperglycemia grade 5 [5]: 0 (0%) N (%)
- Leukocytosis grade 3 [5]: 1 (20%) N (%)
- Leukocytosis grade 4 [5]: 0 (0%) N (%)
- Leukocytosis grade 5 [5]: 0 (0%) N (%)
- Lymphocyte count decreased grade 3 [5]: 0 (0%) N (%)
- Lymphocyte count decreased grade 4 [5]: 0 (0%) N (%)
- Lymphocyte count decreased grade 5 [5]: 0 (0%) N (%)
- Mucositis oral grade 3 [5]: 0 (0%) N (%)
- Mucositis oral grade 4 [5]: 0 (0%) N (%)
- Mucositis oral grade 5 [5]: 0 (0%) N (%)
- Neoplasms benign, mal, uncpec - Oth spec grade 3 [5]: 1 (20%) N (%)
- Neoplasms benign, mal, uncpec - Oth spec grade 4 [5]: 0 (0%) N (%)
- Neoplasms benign, mal, uncpec - Oth spec grade 5 [5]: 0 (0%) N (%)
- Neutrophil count decreased grade 3 [5]: 0 (0%) N (%)
- Neutrophil count decreased grade 4 [5]: 0 (0%) N (%)
- Neutrophil count decreased grade 5 [5]: 0 (0%) N (%)
- Platelet count decreased grade 3 [5]: 2 (40%) N (%)
- Platelet count decreased grade 4 [5]: 1 (20%) N (%)
- Platelet count decreased grade 5 [5]: 0 (0%) N (%)
- Pneumonitis grade 3 [5]: 1 (20%) N (%)
- Pneumonitis grade 4 [5]: 0 (0%) N (%)
- Pneumonitis grade 5 [5]: 0 (0%) N (%)
- Resp, thoracic, mediastinal - Oth spec grade 3 [5]: 0 (0%) N (%)
- Resp, thoracic, mediastinal - Oth spec grade 4 [5]: 0 (0%) N (%)
- Resp, thoracic, mediastinal - Oth spec grade 5 [5]: 0 (0%) N (%)
- White blood cell decreased grade 3 [5]: 0 (0%) N (%)
- White blood cell decreased grade 4 [5]: 0 (0%) N (%)
- White blood cell decreased grade 5 [5]: 0 (0%) N (%)
- Abdominal pain grade 1 [6]: 0 (0) N (%)
- Abdominal pain grade 2 [6]: 0 (0) N (%)
- Abdominal pain grade 3 [6]: 1 (7) N (%)
- Abdominal pain grade 4 [6]: 0 (0) N (%)
- Abdominal pain grade 5 [6]: 0 (0) N (%)
- Anal mucositis grade 1 [6]: 0 (0) N (%)
- Anal mucositis grade 2 [6]: 1 (7) N (%)
- Anal mucositis grade 3 [6]: 0 (0) N (%)
- Anal mucositis grade 4 [6]: 0 (0) N (%)
- Anal mucositis grade 5 [6]: 0 (0) N (%)
- Anemia grade 1 [6]: 0 (0) N (%)
- Anemia grade 2 [6]: 0 (0) N (%)
- Anemia grade 3 [6]: 4 (27) N (%)
- Anemia grade 4 [6]: 0 (0) N (%)
- Anemia grade 5 [6]: 0 (0) N (%)
- Anorexia grade 1 [6]: 0 (0) N (%)
- Anorexia grade 2 [6]: 1 (7) N (%)
- Anorexia grade 3 [6]: 1 (7) N (%)
- Anorexia grade 4 [6]: 0 (0) N (%)
- Anorexia grade 5 [6]: 0 (0) N (%)
- Anxiety grade 1 [6]: 1 (7) N (%)
- Anxiety grade 2 [6]: 0 (0) N (%)
- Anxiety grade 3 [6]: 0 (0) N (%)
- Anxiety grade 4 [6]: 0 (0) N (%)
- Anxiety grade 5 [6]: 0 (0) N (%)
- Aspartate aminotransferase increased grade 1 [6]: 1 (7) N (%)
